Results taken from ChEMBL document CHEMBL4270575, “Lead-like Drugs: A Perspective” (J Med Chem, 2018).

Tests used:
[1] = molecular target: 3',5'-cyclic-AMP phosphodiesterase 4D (Homo sapiens, UniProt Q08499); experiment: Inhibition of PDE4D7 (unknown origin)
[2] = molecular target: 3',5'-cyclic-AMP phosphodiesterase 4A (Homo sapiens, UniProt P27815); experiment: Inhibition of PDE4A1A (unknown origin)
[3] = molecular target: T1, 3',5'-cyclic-AMP phosphodiesterase 4B (Homo sapiens, UniProt Q07343); experiment: Inhibition of PDE4B1 (unknown origin)
[4] = molecular target: T1, 3',5'-cyclic-AMP phosphodiesterase 4B; experiment: Inhibition of PDE4B2 (unknown origin)
[5] = molecular target: 3',5'-cyclic-AMP phosphodiesterase 4C (Homo sapiens, UniProt Q08493); experiment: Inhibition of PDE4C1 (unknown origin)

Measured: IC50

T1 sequence (Q07343 whole entry): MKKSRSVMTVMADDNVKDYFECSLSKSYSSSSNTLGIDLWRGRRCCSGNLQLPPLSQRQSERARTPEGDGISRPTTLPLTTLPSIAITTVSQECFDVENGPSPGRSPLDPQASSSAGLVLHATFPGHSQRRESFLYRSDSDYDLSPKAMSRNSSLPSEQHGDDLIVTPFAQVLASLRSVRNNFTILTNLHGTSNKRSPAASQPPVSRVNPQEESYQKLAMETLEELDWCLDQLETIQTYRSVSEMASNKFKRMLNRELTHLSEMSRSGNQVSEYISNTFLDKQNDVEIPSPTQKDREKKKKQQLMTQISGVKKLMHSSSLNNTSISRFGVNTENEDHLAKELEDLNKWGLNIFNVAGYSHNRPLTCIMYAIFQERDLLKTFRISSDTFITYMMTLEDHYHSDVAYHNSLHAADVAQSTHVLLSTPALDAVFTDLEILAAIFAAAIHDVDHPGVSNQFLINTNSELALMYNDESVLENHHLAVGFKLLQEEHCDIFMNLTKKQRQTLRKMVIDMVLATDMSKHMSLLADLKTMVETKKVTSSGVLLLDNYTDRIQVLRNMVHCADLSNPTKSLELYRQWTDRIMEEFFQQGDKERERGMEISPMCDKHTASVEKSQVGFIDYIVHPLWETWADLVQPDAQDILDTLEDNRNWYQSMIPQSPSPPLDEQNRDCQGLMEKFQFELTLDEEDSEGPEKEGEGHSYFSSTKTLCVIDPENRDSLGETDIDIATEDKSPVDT
3',5'-cyclic-AMP phosphodiesterase 4C, sequence (Q08493 whole entry): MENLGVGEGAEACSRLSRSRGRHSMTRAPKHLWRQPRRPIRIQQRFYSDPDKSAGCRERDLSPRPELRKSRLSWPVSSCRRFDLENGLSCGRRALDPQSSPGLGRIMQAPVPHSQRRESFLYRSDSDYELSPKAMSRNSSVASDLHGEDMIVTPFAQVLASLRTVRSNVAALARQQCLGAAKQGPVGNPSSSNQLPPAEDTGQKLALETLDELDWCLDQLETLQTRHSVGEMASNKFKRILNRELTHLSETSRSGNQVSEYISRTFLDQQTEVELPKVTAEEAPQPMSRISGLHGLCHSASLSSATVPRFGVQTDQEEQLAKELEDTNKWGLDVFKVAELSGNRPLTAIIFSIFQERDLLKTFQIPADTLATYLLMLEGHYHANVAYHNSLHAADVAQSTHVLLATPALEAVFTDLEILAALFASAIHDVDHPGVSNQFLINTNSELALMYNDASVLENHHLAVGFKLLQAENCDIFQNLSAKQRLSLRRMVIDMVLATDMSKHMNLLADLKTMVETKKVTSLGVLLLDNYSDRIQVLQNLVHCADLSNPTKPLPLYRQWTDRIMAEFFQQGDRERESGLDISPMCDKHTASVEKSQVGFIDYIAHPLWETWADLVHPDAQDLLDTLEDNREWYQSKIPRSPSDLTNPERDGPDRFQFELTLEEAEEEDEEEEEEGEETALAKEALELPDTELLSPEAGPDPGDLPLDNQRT
3',5'-cyclic-AMP phosphodiesterase 4A, sequence (P27815 whole entry): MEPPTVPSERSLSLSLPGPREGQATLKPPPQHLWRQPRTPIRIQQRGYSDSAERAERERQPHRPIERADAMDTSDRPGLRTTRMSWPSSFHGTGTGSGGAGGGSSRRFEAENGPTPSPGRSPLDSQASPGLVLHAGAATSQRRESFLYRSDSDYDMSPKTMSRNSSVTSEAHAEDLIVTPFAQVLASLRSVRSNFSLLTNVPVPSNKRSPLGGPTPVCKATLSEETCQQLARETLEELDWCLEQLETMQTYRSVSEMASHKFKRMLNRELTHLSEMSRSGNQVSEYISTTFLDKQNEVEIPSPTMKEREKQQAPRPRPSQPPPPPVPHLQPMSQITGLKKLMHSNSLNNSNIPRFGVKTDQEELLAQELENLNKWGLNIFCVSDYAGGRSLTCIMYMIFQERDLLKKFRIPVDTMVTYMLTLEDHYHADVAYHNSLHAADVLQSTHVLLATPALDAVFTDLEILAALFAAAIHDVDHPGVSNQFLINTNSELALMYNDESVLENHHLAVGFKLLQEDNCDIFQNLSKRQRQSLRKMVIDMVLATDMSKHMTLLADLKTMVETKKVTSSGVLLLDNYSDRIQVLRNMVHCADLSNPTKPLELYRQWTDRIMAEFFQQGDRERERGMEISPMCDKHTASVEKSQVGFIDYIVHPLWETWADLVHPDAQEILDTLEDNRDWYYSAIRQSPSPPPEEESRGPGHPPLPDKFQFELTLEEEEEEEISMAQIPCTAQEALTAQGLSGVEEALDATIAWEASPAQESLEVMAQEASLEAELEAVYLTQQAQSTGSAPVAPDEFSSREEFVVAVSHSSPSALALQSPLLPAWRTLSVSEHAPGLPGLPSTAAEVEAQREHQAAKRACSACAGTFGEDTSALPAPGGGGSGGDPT
3',5'-cyclic-AMP phosphodiesterase 4D, sequence (Q08499 whole entry): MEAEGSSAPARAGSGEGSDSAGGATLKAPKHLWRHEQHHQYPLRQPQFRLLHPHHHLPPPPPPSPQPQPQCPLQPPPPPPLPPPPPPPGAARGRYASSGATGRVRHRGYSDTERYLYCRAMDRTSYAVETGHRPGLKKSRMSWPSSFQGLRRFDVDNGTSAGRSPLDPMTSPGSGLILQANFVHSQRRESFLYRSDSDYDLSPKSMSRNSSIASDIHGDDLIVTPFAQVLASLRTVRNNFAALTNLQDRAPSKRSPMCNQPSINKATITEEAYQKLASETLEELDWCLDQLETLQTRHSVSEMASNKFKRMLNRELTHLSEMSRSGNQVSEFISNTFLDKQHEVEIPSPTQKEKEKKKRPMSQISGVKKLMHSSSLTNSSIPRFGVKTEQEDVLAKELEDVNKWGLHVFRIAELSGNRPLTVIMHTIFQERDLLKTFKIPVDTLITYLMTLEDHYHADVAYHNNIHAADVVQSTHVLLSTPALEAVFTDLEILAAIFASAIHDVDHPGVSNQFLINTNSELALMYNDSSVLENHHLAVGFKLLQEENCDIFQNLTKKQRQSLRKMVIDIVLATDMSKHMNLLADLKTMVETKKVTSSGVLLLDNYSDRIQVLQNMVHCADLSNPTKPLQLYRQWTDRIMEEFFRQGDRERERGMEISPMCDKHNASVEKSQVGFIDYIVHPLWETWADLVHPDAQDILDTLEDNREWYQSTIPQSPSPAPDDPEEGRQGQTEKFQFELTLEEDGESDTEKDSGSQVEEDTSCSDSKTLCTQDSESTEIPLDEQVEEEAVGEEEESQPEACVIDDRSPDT

N#Cc1ccc(Oc2ccc3c(c2)COB3O)cc1 [CRISABOROLE]
0.055 to 0.34 µM: [1] | [2] | [3] | [4] | [5]
